Where two headings read alike, the source gives them in different places. Starred links: 1 amine or outer side, 2 acyl side, 3 side chain; linkers in the order of their positions; H or OH if unused. Positions of bridges follow the written chain, without caps; N, C: chain ends. Non-standard residues stand in square brackets, D forms with d. Residues, ends and D or L forms follow the SMILES beside them. Hexanoyl(3S-OH,4R-NH2,5-Me) = CC(C)[C@@H](N[*:1])[C@@H](O)CC(=O)[*:2]; NMeY = CN[C@@H](Cc1ccc(O)cc1)C(=O)O; NMeF = CN[C@@H](Cc1ccccc1)C(=O)O; dNMeL = CN[C@H](CC(C)C)C(=O)O; Hiv = CC(C)[C@H](O)C(=O)O; Lac = C[C@H](O)C(=O)O
What was measured:
[1] = amide bond, HATU/NMM, CH3CN, 25.0 °C, 17.0 h
PANC1 = assay: SRB colorimetric cell growth inhibition assay, PANC1; conditions: SRB, 48 hours exposure; for TGI / CC50: PANC1 cells; for TGI: total growth inhibition; for GI50: PANC1 pancreatic carcinoma cells; for CC50: read-out: LC50, cell killing
Description: (§1) This form of assay employs 96 well cell culture microplates of […] diameter (Faircloth, 1988; Mosmann, 1983). Most of the cell lines are obtained from American Type Culture Collection (ATCC) derived from different human cancer types.
(§2) Cells are maintained in RPMI 1640 10% FBS, supplemented with 0.1 g/l penicillin and 0.1 g/l streptomycin sulfate and then incubated at 37° C., 5% CO2 and 98% humidity. For the experiments, cells were harvested from subconfluent cultures using trypsin and resuspended in fresh medium before plating.
(§3) Cells are seeded in 96 well microtiter plates, at 5×10^3 cells per well in aliquots of 195 μl medium, and they are allowed to attach to the plate surface by growing in drug free medium for 18 hours. Afterward, samples are added in aliquots of 5 μl in a ranging from 10 to 10-8 μg/ml, dissolved in DMSO/EtOH/PBS (0.5:0.5:99). After 48 hours exposure, the antitumor effect are measured by the SRB methodology: cells are fixed by adding 50 μl of cold 50% (wt/vol) trichloroacetic acid (TCA) and incubated for 60 minutes at 4° C.
(§4) Plates are washed with deionised water and dried. One hundred μl of SRB solution (0.4% wt/vol in 1% acetic acid) is added to each microtiter well and incubated for 10 minutes at room temperature. Unbound SRB is removed by washing with 1% acetic acid. Plates are air dried and bound stain is solubilized with Tris buffer. Optical densities are read on a automated spectrophotometric plate reader at a single wavelength of 490 nm.
(§5) The values for mean+/−SD of data from triplicate wells are calculated.
(§6) Some parameters for cellular responses can be calculated: GI=growth inhibition, TGI=total growth inhibition (cytostatic effect) and LC=cell killing (cytotoxic effect).

HELA = assay: SRB colorimetric cell growth inhibition assay, HELA; conditions: SRB, 48 hours exposure; for TGI / CC50: HELA cells; for TGI: total growth inhibition; for GI50: HELA cervix carcinoma cells; for CC50: read-out: LC50, cell killing
Description: as §1, §2, §3, §4, §5, §6

DU145 = assay: SRB colorimetric cell growth inhibition assay, DU145; conditions: SRB, 48 hours exposure; for TGI / CC50: DU145 cells; for TGI: total growth inhibition; for GI50: DU145 prostate carcinoma cells; for CC50: read-out: LC50, cell killing
Description: as §1, §2, §3, §4, §5, §6

IGROV = assay: SRB colorimetric cell growth inhibition assay, IGROV; conditions: SRB, 48 hours exposure; for TGI / CC50: IGROV cells; for TGI: total growth inhibition; for GI50: IGROV ovary adenocarcinoma cells; for CC50: read-out: LC50, cell killing
Description: as §1, §2, §3, §4, §5, §6

K562 = assay: SRB colorimetric cell growth inhibition assay, K562; conditions: K562 cells, SRB, 48 hours exposure; for TGI: total growth inhibition; for CC50: read-out: LC50, cell killing
Description: as §1, §2, §3, §4, §5, §6

A549 = assay: SRB colorimetric cell growth inhibition assay, A549; conditions: SRB, 48 hours exposure; for TGI / CC50: A549 cells; for TGI: total growth inhibition; for GI50: A549 lung carcinoma cells; for CC50: read-out: LC50, cell killing
Description: as §1, §2, §3, §4, §5, §6

LOVO = assay: SRB colorimetric cell growth inhibition assay, LOVO; conditions: SRB, 48 hours exposure; for TGI / CC50: LOVO cells; for TGI: total growth inhibition; for GI50: LOVO colon adenocarcinoma cells; for CC50: read-out: LC50, cell killing
Description: as §1, §2, §3, §4, §5, §6

HT29 = assay: SRB colorimetric cell growth inhibition assay, HT29; conditions: SRB, 48 hours exposure; for TGI / CC50: HT29 cells; for TGI: total growth inhibition; for GI50: HT29 colon adenocarcinoma cells; for CC50: read-out: LC50, cell killing
Description: as §1, §2, §3, §4, §5, §6

LN-caP = assay: SRB colorimetric cell growth inhibition assay, LN-caP; conditions: SRB, 48 hours exposure; for TGI / CC50: LN-caP cells; for TGI: total growth inhibition; for GI50: LN-caP prostate adenocarcinoma cells; for CC50: read-out: LC50, cell killing
Description: as §1, §2, §3, §4, §5, §6

SK-MEL-28 = assay: SRB colorimetric cell growth inhibition assay, SK-MEL-28; conditions: SRB, 48 hours exposure; for GI50: SK-MEL-28 (MEL-28) melanoma cells; for TGI / CC50: SK-MEL-28 cells; for TGI: total growth inhibition; for CC50: read-out: LC50, cell killing
Description: as §1, §2, §3, §4, §5, §6

SK-BR3 = assay: SRB colorimetric cell growth inhibition assay, SK-BR3; conditions: SRB, 48 hours exposure; for GI50: SK-BR3 breast adenocarcinoma cells; for TGI / CC50: SK-BR3 cells; for TGI: total growth inhibition; for CC50: read-out: LC50, cell killing
Description: as §1, §2, §3, §4, §5, §6

LOVO-DOX = assay: SRB colorimetric cell growth inhibition assay, LOVO-DOX; conditions: SRB, 48 hours exposure; for GI50: LOVO-DOX (MDR) colon adenocarcinoma cells; for TGI / CC50: LOVO-DOX cells; for TGI: total growth inhibition; for CC50: read-out: LC50, cell killing
Description: as §1, §2, §3, §4, §5, §6

IGROV-ET = assay: SRB colorimetric cell growth inhibition assay, IGROV-ET; conditions: SRB, 48 hours exposure; for GI50: IGROV-ET (ET-743 resistant) ovary cells; for TGI / CC50: IGROV-ET cells; for TGI: total growth inhibition; for CC50: read-out: LC50, cell killing
Description: as §1, §2, §3, §4, §5, §6

HELA-APL = assay: SRB colorimetric cell growth inhibition assay, HELA-APL; conditions: SRB, 48 hours exposure; for GI50: HELA-APL (aplidine resistant) cervix cells; for TGI / CC50: HELA-APL cells; for TGI: total growth inhibition; for CC50: read-out: LC50, cell killing
Description: as §1, §2, §3, §4, §5, §6

COc1ccc(C[C@H]2C(=O)O[C@H](C)[C@H](NC(=O)OC(C)(C)C)C(=O)N[C@H](C(C)C)[C@@H](O)CC(=O)O[C@@H](C(C)C)C(=O)N[C@@H](CC(C)C)C(=O)N(C)[C@@H](C)C(=O)N2C)cc1
ring closure, yield of all isomers ([1]; from CN[C@@H](Cc1ccc(OC)cc1)C(=O)O[C@H](C)[C@H](NC(=O)OC(C)(C)C)C(=O)N[C@H](C(C)C)[C@@H](O)CC(=O)O[C@H](C(=O)N[C@@H](CC(C)C)C(=O)N(C)[C@@H](C)C(=O)O)C(C)C, 4.8 mM): 48%

COc1ccc(C[C@H]2C(=O)O[C@H](C)[C@H](NC(=O)OC(C)(C)C)C(=O)N[C@H](C(C)C)[C@@H](O)CC(=O)O[C@@H](C(C)C)C(=O)N[C@@H](CC(C)C)C(=O)N[C@@H](C)C(=O)N2C)cc1
ring closure, yield of all isomers ([1]; from CN[C@@H](Cc1ccc(OC)cc1)C(=O)O[C@H](C)[C@H](NC(=O)OC(C)(C)C)C(=O)N[C@H](C(C)C)[C@@H](O)CC(=O)O[C@H](C(=O)N[C@@H](CC(C)C)C(=O)N[C@@H](C)C(=O)O)C(C)C, 4.6 mM): 60%

CC(C)C[C@@H]1NC(=O)[C@H](C(C)C)OC(=O)C[C@H](O)[C@@H](C(C)C)NC(=O)[C@@H](NC(=O)[C@@H](CC(C)C)N(C)C(=O)[C@@H]2CCCN2C(=O)[C@H](C)O)[C@@H](C)OC(=O)[C@H](Cc2ccccc2)N(C)C(=O)[C@@H]2CCCN2C1=O [Phe^5 tamandarin B, [N-MePhe^5]-Tamandarin B] (H-[Lac]P[dNMeL]T[Hexanoyl(3S-OH,4R-NH2,5-Me)][Hiv]LP[NMeF]; ester 4-C)
TGI (PANC1): 3.28E−08 Molar | GI50 (PANC1): 3.81 nM | CC50 (PANC1): 9880 nM | TGI (HELA): 4.61E−09 Molar | GI50 (HELA): 1.17 nM | CC50 (HELA): 55.5 nM | TGI (DU145): 1.02E−08 Molar | GI50 (DU145): 2.37 nM | CC50 (DU145): 268 nM | TGI (IGROV): 1.28E−08 Molar | GI50 (IGROV): 2.49 nM | CC50 (IGROV): 124 nM | GI50 (K562): 23.2 nM | TGI (K562): 9.88E−07 Molar | CC50 (K562): 9880 nM | TGI (A549): 3.90E−08 Molar | GI50 (A549): 4.56 nM | CC50 (A549): 935 nM | TGI (LOVO): 8.81E−08 Molar | GI50 (LOVO): 26.1 nM | CC50 (LOVO): 5220 nM | TGI (HT29): 7.89E−08 Molar | GI50 (HT29): 4.77 nM | CC50 (HT29): 9880 nM | TGI (LN-caP): 8.32E−09 Molar | GI50 (LN-caP): 1.52 nM | CC50 (LN-caP): 101 nM | GI50 (SK-MEL-28): 2.74 nM | TGI (SK-MEL-28): 1.88E−08 Molar | CC50 (SK-MEL-28): 205 nM | GI50 (SK-BR3): 0.658 nM | TGI (SK-BR3): 4.49E−09 Molar | CC50 (SK-BR3): 312 nM | GI50 (LOVO-DOX): 358 nM | TGI (LOVO-DOX): 1.97E−06 Molar | CC50 (LOVO-DOX): 9880 nM | GI50 (IGROV-ET): 215 nM | TGI (IGROV-ET): 7.88E−07 Molar | CC50 (IGROV-ET): 6350 nM | GI50 (HELA-APL): 44.5 nM | TGI (HELA-APL): 4.23E−07 Molar | CC50 (HELA-APL): 9880 nM

COc1ccc(C[C@H]2C(=O)O[C@H](C)[C@H](NC(=O)[C@@H](CC(C)C)N(C)C(=O)[C@@H]3CCCN3C(=O)[C@H](C)O)C(=O)N[C@H](C(C)C)[C@@H](O)CC(=O)O[C@@H](C(C)C)C(=O)N[C@@H](CC(C)C)C(=O)N3CCC[C@H]3C(=O)N2C)cc1 [tamandarin B, Tamandarin B, reference compound] (H-[Lac]P[dNMeL]T[Hexanoyl(3S-OH,4R-NH2,5-Me)][Hiv]LP[NMeY](Me); ester 4-C)
TGI (PANC1): 5.69E−08 Molar | GI50 (PANC1): 14 nM | CC50 (PANC1): 413 nM | TGI (HELA): 1.76E−08 Molar | GI50 (HELA): 3.9 nM | CC50 (HELA): 120 nM | TGI (DU145): 2.41E−08 Molar | GI50 (DU145): 7.08 nM | CC50 (DU145): 79.7 nM | TGI (IGROV): 2.91E−08 Molar | GI50 (IGROV): 7.31 nM | CC50 (IGROV): 133 nM | GI50 (K562): 8.47 nM | TGI (K562): 2.63E−08 Molar | CC50 (K562): 78.2 nM | TGI (A549): 4.01E−08 Molar | GI50 (A549): 7.62 nM | CC50 (A549): 766 nM | TGI (LOVO): 1.61E−07 Molar | GI50 (LOVO): 30.5 nM | CC50 (LOVO): 9590 nM | TGI (HT29): 4.32E−08 Molar | GI50 (HT29): 6.32 nM | CC50 (HT29): 9590 nM | TGI (LN-caP): 2.13E−08 Molar | GI50 (LN-caP): 5.84 nM | CC50 (LN-caP): 142 nM | GI50 (SK-MEL-28): 3.03 nM | TGI (SK-MEL-28): 1.19E−08 Molar | CC50 (SK-MEL-28): 119 nM | GI50 (SK-BR3): 5.44 nM | TGI (SK-BR3): 2.49E−08 Molar | CC50 (SK-BR3): 236 nM | GI50 (LOVO-DOX): 1250 nM | TGI (LOVO-DOX): 9.59E−06 Molar | CC50 (LOVO-DOX): 9590 nM | GI50 (IGROV-ET): 173 nM | TGI (IGROV-ET): 2.04E−06 Molar | CC50 (IGROV-ET): 9590 nM | GI50 (HELA-APL): 59.7 nM | TGI (HELA-APL): 1.16E−06 Molar | CC50 (HELA-APL): 9590 nM

Source: patent publication US20070149446A1, “Tamandarin analogs and fragments thereof and methods of making and using” (The Trustees of the University of Pennsylvania Center for …, priority 2003, published 2007)
